Test results: ChEMBL document CHEMBL1142793, “Lead optimization of 4-(dimethylamino)quinazolines, potent and selective antagonists for the melanin-concentrating hormone receptor 1” (Bioorg Med Chem Lett, 2005)

Key:
[1] = molecular target: T1, Alpha-2A adrenergic receptor (Homo sapiens, UniProt P08913); assay: Inhibitory activity against alpha-2A adrenergic receptor by using [3H]MK-912 as radioligand expressed in COS-1 cells; format: cell-based
T1 sequence (P08913 whole entry): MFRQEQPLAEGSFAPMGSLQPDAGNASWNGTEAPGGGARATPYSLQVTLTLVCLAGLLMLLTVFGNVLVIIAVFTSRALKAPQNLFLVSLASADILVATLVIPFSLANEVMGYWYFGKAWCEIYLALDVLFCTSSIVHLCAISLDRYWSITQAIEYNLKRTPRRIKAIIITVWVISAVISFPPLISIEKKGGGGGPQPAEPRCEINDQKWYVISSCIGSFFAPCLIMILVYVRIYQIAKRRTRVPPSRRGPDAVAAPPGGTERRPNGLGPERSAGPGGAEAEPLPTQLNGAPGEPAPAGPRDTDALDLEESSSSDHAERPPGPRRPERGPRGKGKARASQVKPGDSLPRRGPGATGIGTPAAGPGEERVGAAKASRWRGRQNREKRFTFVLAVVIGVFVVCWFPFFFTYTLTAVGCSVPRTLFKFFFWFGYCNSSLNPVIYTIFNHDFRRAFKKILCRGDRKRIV

[2] = molecular target: Melanin-concentrating hormone receptor 1 (Homo sapiens, UniProt Q99705); assay: Inhibitory activity against human CA-MCH-R1 (Melanin-concentrating hormone receptor 1) by using [125I](Phe13,Tyr19)MCH as radioligand expressed in HEK293 cells; format: cell-based
Sequence of Melanin-concentrating hormone receptor 1 (Q99705 whole entry): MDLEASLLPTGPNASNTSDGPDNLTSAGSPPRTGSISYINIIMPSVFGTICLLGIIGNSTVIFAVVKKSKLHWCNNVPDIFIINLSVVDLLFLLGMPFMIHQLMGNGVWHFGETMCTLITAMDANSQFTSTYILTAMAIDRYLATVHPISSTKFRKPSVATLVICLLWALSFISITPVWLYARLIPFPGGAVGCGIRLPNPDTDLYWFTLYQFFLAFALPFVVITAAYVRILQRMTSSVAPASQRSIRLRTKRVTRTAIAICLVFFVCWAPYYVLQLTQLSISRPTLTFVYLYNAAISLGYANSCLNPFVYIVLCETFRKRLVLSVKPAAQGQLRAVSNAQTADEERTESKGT

[3] = molecular target: T2, Neuropeptide Y receptor type 5 (Homo sapiens, UniProt Q15761); assay: Inhibitory activity against neuropeptide Y receptor type 5 by using [125I]PYY as radioligand expressed in COS-1 cells; format: cell-based
T2 sequence (Q15761 whole entry): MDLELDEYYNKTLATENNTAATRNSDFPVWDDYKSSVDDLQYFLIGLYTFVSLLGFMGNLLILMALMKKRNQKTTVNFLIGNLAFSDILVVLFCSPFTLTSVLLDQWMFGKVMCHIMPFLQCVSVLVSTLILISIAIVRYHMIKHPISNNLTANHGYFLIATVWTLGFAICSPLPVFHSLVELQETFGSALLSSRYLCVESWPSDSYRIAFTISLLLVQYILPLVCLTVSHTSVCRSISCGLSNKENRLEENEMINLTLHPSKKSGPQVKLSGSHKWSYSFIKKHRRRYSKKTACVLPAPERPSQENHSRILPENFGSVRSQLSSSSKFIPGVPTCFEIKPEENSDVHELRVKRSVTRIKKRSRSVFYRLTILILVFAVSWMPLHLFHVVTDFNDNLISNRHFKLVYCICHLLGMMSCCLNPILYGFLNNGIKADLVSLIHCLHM

[4] = organism: Homo sapiens; assay: Selective ratio against Alpha2A adrenergic receptor to that of MCH

Question: How did the IC50 [1] turn out when `CN(C)c1nc(NC[C@H]2CC[C@H](CNS(=O)(=O)c3ccc(Br)cc3OC(F)(F)F)CC2)nc2ccccc12` was run?
Answer: 7.7 nM

Question: What about the IC50 [2] of the same compound?
Answer: 160 nM

Question: And the IC50 [3]?
Answer: 2.7 nM

Question: For `CN(C)c1nc(N[C@H]2CC[C@@H](NC(=O)c3cccc(C#N)c3)CC2)nc2ccccc12`, which IC50 [1] is on record?
Answer: 150 nM

Question: And the Selectivity [4]?
Answer: 15

Question: And the IC50 [2]?
Answer: 10 nM

Question: What does the source list for `CN(C)c1nc(N[C@H]2CC[C@@H](NC(=O)c3cccc(Br)c3)CC2)nc2ccccc12`?
Answer: IC50 [1]: 63 nM; Selectivity [4]: 11; IC50 [2]: 5.9 nM

Question: With `CN(C)c1nc(N[C@H]2CC[C@@H](NC(=O)c3cccc(Cl)c3)CC2)nc2ccccc12` as the compound, how does the IC50 [1] read?
Answer: 76 nM

Question: What about the Selectivity [4] of the same compound?
Answer: 17

Question: What about the IC50 [2] of the same compound?
Answer: 4.5 nM

Question: Which results are given for `COc1cc(OC)cc(C(=O)N[C@H]2CC[C@@H](Nc3nc(N(C)C)c4ccccc4n3)CC2)c1`?
Answer: IC50 [1]: 71 nM; Selectivity [4]: 36; IC50 [2]: 2 nM

Question: `CN(C)c1nc(N[C@H]2CC[C@@H](CNS(=O)(=O)c3ccc(Br)cc3OC(F)(F)F)CC2)nc2ccccc12` was tested. Which IC50 [1] did it give?
Answer: 130 nM

Question: And the IC50 [2]?
Answer: 140 nM

Question: And the IC50 [3]?
Answer: 120 nM

Question: `CN(C)c1nc(N[C@H]2CC[C@@H](NC(=O)c3ccc(F)cc3)CC2)nc2ccccc12` was tested. Which IC50 [1] did it give?
Answer: 150 nM

Question: What about the Selectivity [4] of the same compound?
Answer: 16

Question: What about the IC50 [2] of the same compound?
Answer: 9.4 nM

Question: Which results are given for `CN(C)c1nc(N[C@H]2CC[C@@H](NS(=O)(=O)c3ccc(Br)cc3OC(F)(F)F)CC2)nc2ccccc12`?
Answer: IC50 [1]: 57 nM; IC50 [2]: 83 nM; IC50 [3]: 880 nM

Question: How did the IC50 [1] turn out when `CN(C)c1nc(N[C@H]2CC[C@@H](NC(=O)c3ccc(F)c(F)c3F)CC2)nc2ccccc12` was run?
Answer: 200 nM

Question: What about the Selectivity [4] of the same compound?
Answer: 5.3

Question: What about the IC50 [2] of the same compound?
Answer: 38 nM

Question: With `CN(Cc1ccc(Br)cc1OC(F)(F)F)CC1CCC(CNc2nc(N(C)C)c3ccccc3n2)CC1` (stereo unspecified) as the compound, how does the IC50 [1] read?
Answer: 44 nM

Question: And the IC50 [2]?
Answer: 5600 nM

Question: What about the IC50 [3] of the same compound?
Answer: > 1000 nM

Question: `CN(C)c1nc(NC2CCN(C(=O)c3ccc(Br)cc3OC(F)(F)F)CC2)nc2ccccc12` was tested. Which IC50 [2] did it give?
Answer: 1200 nM

Question: How did the IC50 [2] turn out when `CN(C)c1nc(N[C@H]2CC[C@@H](NC(=O)c3ccccc3F)CC2)nc2ccccc12` was run?
Answer: 170 nM

Question: For `CN(C)c1nc(N[C@H]2CC[C@@H](NC(=O)c3ccc(F)c(F)c3)CC2)nc2ccccc12`, which IC50 [1] is on record?
Answer: 260 nM

Question: What about the IC50 [3] of the same compound?
Answer: 2700 nM

Question: With `CN(C)c1nc(NCC2CCC(CNCc3ccc(Br)cc3OC(F)(F)F)CC2)nc2ccccc12` (stereo unspecified) as the compound, how does the IC50 [1] read?
Answer: 31 nM

Question: What about the IC50 [2] of the same compound?
Answer: 960 nM

Question: What about the IC50 [3] of the same compound?
Answer: 560 nM

Question: What does the source list for `Cc1cccc(C(=O)N[C@H]2CC[C@@H](Nc3nc(N(C)C)c4ccccc4n3)CC2)c1`?
Answer: IC50 [1]: 110 nM; Selectivity [4]: 24; IC50 [2]: 4.6 nM

Question: Which IC50 [1] does the source give for `CN(C)c1nc(N[C@H]2CC[C@@H](NC(=O)c3cccc(F)c3)CC2)nc2ccccc12` here?
Answer: 130 nM

Question: And the Selectivity [4]?
Answer: 14

Question: And the IC50 [2]?
Answer: 9.5 nM

Question: How did the IC50 [1] turn out when `CN(C)c1nc(NC2CCC(NCc3ccc(Br)cc3OC(F)(F)F)CC2)nc2ccccc12` (stereo unspecified) was run?
Answer: 170 nM

Question: What about the IC50 [2] of the same compound?
Answer: 35 nM

Question: And the IC50 [3]?
Answer: > 1000 nM

Question: How did the IC50 [1] turn out when `CN(C)c1nc(NCC2CCC(CNC(=O)c3ccc(Br)cc3OC(F)(F)F)CC2)nc2ccccc12` (stereo unspecified) was run?
Answer: 9.9 nM

Question: And the IC50 [2]?
Answer: 1500 nM

Question: What about the IC50 [3] of the same compound?
Answer: 470 nM

Question: Which IC50 [1] does the source give for `CN(C)c1nc(N[C@H]2CC[C@@H](NC(=O)c3cccc([N+](=O)[O-])c3)CC2)nc2ccccc12` here?
Answer: 97 nM

Question: And the Selectivity [4]?
Answer: 14

Question: What about the IC50 [2] of the same compound?
Answer: 6.8 nM

Question: With `CN(C)c1nc(NC2CCC(CNC(=O)c3ccc(Br)cc3OC(F)(F)F)CC2)nc2ccccc12` (cis isomer) as the compound, how does the IC50 [1] read?
Answer: 570 nM

Question: What about the IC50 [2] of the same compound?
Answer: 79 nM

Question: What about the IC50 [3] of the same compound?
Answer: 1800 nM

Question: How did the IC50 [1] turn out when `CN(C)c1nc(NC2CCC(NC(=O)c3ccc(Br)cc3OC(F)(F)F)CC2)nc2ccccc12` (cis isomer) was run?
Answer: 390 nM

Question: What about the Selectivity [4] of the same compound?
Answer: 2.4

Question: And the IC50 [2]?
Answer: 160 nM

Question: And the IC50 [3]?
Answer: > 1000 nM

Question: What does the source list for `CN(C)c1nc(NC2CCN(Cc3ccc(Br)cc3OC(F)(F)F)CC2)nc2ccccc12`?
Answer: IC50 [1]: 520 nM; IC50 [2]: 320 nM; IC50 [3]: > 1000 nM

Question: Which IC50 [1] does the source give for `CN(C)c1nc(NC2CCC(CNCc3ccc(Br)cc3OC(F)(F)F)CC2)nc2ccccc12` (cis isomer) here?
Answer: 360 nM

Question: And the IC50 [2]?
Answer: 4.9 nM

Question: What about the IC50 [3] of the same compound?
Answer: 2400 nM

Question: Which IC50 [1] does the source give for `CN(C)c1nc(NC2CCN(S(=O)(=O)c3ccc(Br)cc3OC(F)(F)F)CC2)nc2ccccc12` here?
Answer: 170 nM

Question: What about the IC50 [2] of the same compound?
Answer: 250 nM

Question: Which results are given for `CN(C)c1nc(NCC2CCC(CN(C)S(=O)(=O)c3ccc(Br)cc3OC(F)(F)F)CC2)nc2ccccc12` (stereo unspecified)?
Answer: IC50 [1]: 34 nM; IC50 [2]: 5800 nM; IC50 [3]: 460 nM

Question: Which results are given for `CN(C)c1nc(N[C@H]2CC[C@@H](NC(=O)c3ccc(Cl)c(Cl)c3)CC2)nc2ccccc12`?
Answer: IC50 [1]: 47 nM; Selectivity [4]: 9.4; IC50 [2]: 5 nM

Question: `CN(C)c1nc(N[C@H]2CC[C@@H](NC(=O)c3cccc(C(F)(F)F)c3)CC2)nc2ccccc12` was tested. Which IC50 [1] did it give?
Answer: 60 nM

Question: And the Selectivity [4]?
Answer: 4

Question: What about the IC50 [2] of the same compound?
Answer: 15 nM
